Two compounds from ChEMBL document CHEMBL5376009 (RSC Med Chem, 2024) can be followed below.

Type in all cases: functional, organism-based
For experiment [1], the system named is Influenza A virus. Nature of the experiment: Antiviral activity against Oseltamivir-resistant Influenza A virus (H1N1) pdm09.
In experiment [2] the test system is Influenza A virus. Nature of the experiment: Antiviral activity against influenza A virus A/WSN/1933 (H1N1) infected in MDCK cells harbouring TamiFlu sensitive neuraminidase 274Y mutant assessed as reduction in cytopathic effect by DAPI staining based analysis.
Experiment [3] concerns Influenza A virus. Put plainly: Antiviral activity against influenza A virus A/WSN/1933 (H1N1) harboring Tamiflu- sensitive neuraminidase (274H) infected in MDCK cells assessed as reduction in cytopathic effect by fluorescence based analysis.
In experiment [4] the test system is Influenza A virus. Nature of the experiment: Antiviral activity against influenza A virus A/WSN/1933 (H1N1) infected in MDCK cells harbouring TamiFlu sensitive neuraminidase 274H mutant assessed as reduction in cytopathic effect by DAPI staining based analysis.
For experiment [5], the system named is Influenza A virus. Put plainly: Antiviral activity against influenza A virus A/WSN/1933 (H1N1) harboring Tamiflu- sensitive neuraminidase (274Y) infected in MDCK cells assessed as reduction in cytopathic effect by fluorescence based analysis.

Structures are written as SMILES.

As for `COc1cccc(OC)c1C(=O)/C=C/c1nc(C)c(C)nc1C`, the midpoint of the response in experiment [1], the EC50, lay at 1040 nM.

As to `Cc1onc(-c2ccccc2Cl)c1C(=O)N1CCN(c2ccc([N+](=O)[O-])cc2Cl)CC1`, the concentration giving a half-maximal response (EC50) in experiment [2], in experiment [4] and in experiment [5] was 140 nM each time. Besides, the 50% inhibitory concentration (IC50) in experiment [3] was determined as 70 nM.
